# Data from patent publication US11091460B2, “Syk inhibitor and use method therefor” (CHIA TAI TIANQING PHARMACEUTICAL GROUP CO., LTD., priority 2017, dated 2021).
# System: AKT phosphorylation
# Assay: In vitro test of the inhibition effect on AKT phosphorylation (ELISA, Ramos cells)
# Type: cell-based
# Conditions: Homo sapiens, Ramos, Ramos cell line, compound 1 hour, goat anti-human IgM 10 ug/ml for 10 minutes, Phospho-AKT 1/2/3 (ser473) ELISA; read-out: Inhibit AKT phosphorylation IC50
# Method: Experimental Example 2: In Vitro Test of the Inhibition Effect of the Example Compounds on AKT Phosphorylation
# • 2.1 Experimental Purpose: Intracellular protein kinase AKT phosphorylation detected by experiment was measured by enzyme-linked immunosorbent assay (ELISA), and the inhibition of the compound on protein kinase AKT phosphorylation was evaluated by an index of the half-cell inhibition concentration (IC50) value of the compound. • 2.2 Experimental Materials: • Cell line: Ramos cell line • Cell culture medium (RPMI1640, Invitrogen #22400-105; 10% serum Gibco #10099-141; L-glutamine 1×, Gibco #25030-081) • Experimental medium (without serum, RPM11640, Invitrogen #22400-105; L-glutamine 1×, Gibco #25030) • Lysis buffer (trishydroxymethylaminomethane hydrochloride, Invitrogen15567-1000 ml; sodium chloride, domestic; sodium deoxycholate, Sigma30970-25 G; polyethylene glycol octylphenyl ether, SigmaT9284-100 ml; dodecane sodium sulfonate, SigmaL3771; ethylenediaminetetraacetic acid, Invitrogen15575-038-100 ml; ultrapure water, MilliQ) • Protease inhibitor (Roche, 4693159001-30/BOX) • Phosphatase inhibitor mixture 2 (Sigma, P5726-5 ML) • Phosphatase inhibitor mixture 3 (Sigma, P0044-5 ML) • Goat Anti-Human immunoglobulin M (F(ab′)2 Goat Anti-Human IgM) (Jackson Immuno Research-109-006-129) • Phosphorylated AKT assay kit (Phospho-AKT 1/2/3 (ser473)) (TGR Bioscience, EKT002) • 10× Hank's balanced salt solution (Gibco #14065-056) • 96-well cell plate (Greiner #655090) • Compound V-well dilution plate (Axygen #WITP02280) • CO2 incubator (Thermo #371) • Centrifuge (Eppendorf #581 OR) • Vi-cell cell counter (Beckman Coulter) • Pipette (Eppendorf) • Pipette (Greiner) • Pipetting gun (Eppendorf) • Multi-purpose microplate reader (Envision Reader) • 2.3 Experimental procedures and methods: • a) Cell Seeding (Ramos Cells) • 1) The medium was preheated in a 37° C. water bath. Suspended cells and their culture solution were aspirated, centrifuged at 1000 rpm for 5 minutes. • 2) Aspirated the cell culture medium, added 10 mL of pre-warmed medium to the centrifuge tube, blew off the resuspended cells, pipette 1 mL of the cell suspension, and counted with Vi-cell; • 3) The Ramos cells were diluted with a medium to a density of 5×10^6/mL, and the diluted cells were added to a 96-well cell culture plate (100 μL/well) using a lance. Placed the cell plates in a 37° C., 5% CO2 incubator for overnight. • b) Cell starvation: • 1) After cultured the inoculation cells for overnight, centrifuged at 1000 rpm for 5 minutes on the next day, aspirated the original medium by a lance, added serum-free experimental medium, placed the cell plates in a 37° C., 5% CO2 incubator, and starved for overnight. • c) Compound preparation and dosing: • 1) The compound was diluted with dimethyl sulfoxide to give an initial concentration of 5 mM. A triple gradient dilution was done with compound V dilution plate to make 10 concentration points. • 2) Took another new compound V-well dilution plate, added 198 ul of serum-free experimental medium to each well, and then added 2 ul of the diluted compound above to each well, and mixed with a lance. […]
row,IC50,SMILES
1,175 nM,"Cn1c(=O)c(Nc2ccc(C(C)(O)C(F)(F)F)cn2)cc2c(F)c(-c3cc[nH]n3)ccc21 (single isomer, unassigned) [Example 24, 5-Fluoro-1-methyl-6-(1H-pyrazol-3-yl)-3-((5-(1,1,1-trifluoro-2-hydroxypropan-2-yl)pyridine-2-yl)amino)quinoline-2(1H)-one]"

# Same assay, conditions: Ramos cell line, compound 1 hour, goat anti-human IgM 10 ug/ml for 10 minutes, Phospho-AKT 1/2/3 (ser473) ELISA; read-out: Inhibit AKT phosphorylation IC50
row,IC50,SMILES
1,121 nM,"Cn1c(=O)c(Nc2ccc(C(C)(O)C(F)(F)F)cn2)cc2c(F)c(-c3cc[nH]n3)ccc21 (single isomer, unassigned) [Example 25, 5-Fluoro-1-methyl-6-(1H-pyrazol-3-yl)-3-((5-(1,1,1-trifluoro-2-hydroxypropan-2-yl)pyridine-2-yl)amino)quinoline-2(1H)-one]"
2,750 nM,"Cn1c(=O)c(Nc2ccc(N3CCOCC3)cn2)cc2cc(-c3cc[nH]n3)ccc21 [Example 2, 1-Methyl-3-((5-morpholinepyridin-2-yl)amino)-6-(1H-pyrazol-3-yl)quinoline-2(1H)-one]"

row,SMILES,IC50
1,"Cn1c(=O)c(Nc2ccc(N3CCOCC3)cc2)cc2cc(-c3cc[nH]n3)ccc21 [Example 1, 1-Methyl-3-((4-morpholinephenyl)amino)-6-(1H-pyrazol-3-yl) quinoline-2(1H)-one]",248 nM

# Target: T1, SYK kinase (Homo sapiens, UniProt P43405)
# T1 construct: purchased Invitrogen PV3857
# Assay: In vitro test of the inhibition effect on SYK kinase (HTRF)
# Type: biochemical
# Conditions: tyrosine kinase 0.0156 ng/μL, substrate 0.2 uM, ATP 2 uM, 23° C. 1 hour, read-out: Inhibit SYK kinase IC50
# Method: Experimental Example 1: In Vitro Test of the Inhibition Effect of the Example Compounds on SYK Kinase
# Adenosine triphosphate concentration was controlled at 2 uM. • 4) Loaded with a Multidrop automatic dispenser, and a mixture of tyrosinase solution and tyrosine kinase-substrate-biotin/adenosine triphosphate was added in an amount of 5 ul per well, and incubated at 23° C. for 1 hour. • c) Detection phase: • 1) Added 13.33 mL of ethylenediaminetetraacetic acid solution to the Detection Buffer in the kit, added the specified amount of […] (Eu)-labeled antibody and streptavidin XL-665, and prepared the detection solution. • 2) Loaded with a Multidrop automatic dispenser, and 10 uL of the detection solution per well, incubated at 23° C. for 1 hour. It terminated the reaction of the enzyme and substrate mixture. • 3) Reading after centrifugation on a multi-function microplate reader, • d) Data Analysis: Analyzed the data with XL-Fit, and calculated the IC50 value of the compound.
row,SMILES,IC50
1,"Cn1c(=O)c(Nc2ccc(N3CCOCC3)cc2)cc2cc(-c3cc[nH]n3)ccc21 [Example 1, 1-Methyl-3-((4-morpholinephenyl)amino)-6-(1H-pyrazol-3-yl) quinoline-2(1H)-one]",33.8 nM
2,"Cn1c(=O)c(Nc2ccc(N3CCOCC3)cn2)cc2cc(-c3cc[nH]n3)ccc21 [Example 2, 1-Methyl-3-((5-morpholinepyridin-2-yl)amino)-6-(1H-pyrazol-3-yl)quinoline-2(1H)-one]",204 nM
3,"C[C@@H]1COCCN1c1ccc(Nc2cc3c(F)c(-c4cc[nH]n4)ccc3n(C)c2=O)nc1 [Example 13, (R) 5-fluoro-1-methyl-3-((5-(3-methylmorpholine)pyridin-2-yl)amino)-6-(1H-pyrazol-3-yl)quinoline-2(1H)-one]",923 nM
4,"C[C@H]1COCCN1c1ccc(Nc2cc3c(F)c(-c4cc[nH]n4)ccc3n(C)c2=O)nc1 [Example 14, (S) 5-fluoro-1-methyl-3-((5-(3-methylmorpholine)pyridin-2-yl)amino)-6-(1H-pyrazol-3-yl)quinoline-2(1H)-one]",237 nM
5,"Cn1c(=O)c(Nc2ccc(N3CCOCC3)cc2)nc2ccc(-c3ccncc3)cc21 [Example 28, 1-Methyl-3-((4-morpholinephenyl)amino)-7-(pyridin-4-yl)quinoxaline-2(1H)-one]",230 nM
6,"Cn1c(=O)c(Nc2ccc(N3CCOCC3)cc2)nc2ccc(-c3ncc[nH]3)cc21 [Example 30, 7-(1H-imidazol-2-yl)-1-methyl-3-((4-morpholinephenyl)amino)quinoxaline-2(1H)-one]",461 nM
7,"Cn1c(=O)c(Nc2ccc(N3CCOCC3)cc2)nc2ccc(-c3nccs3)cc21 [Example 32, 1-Methyl-3-((4-morpholinephenyl)amino)-7-(thiazol-2-yl)quinoxaline-2(1H)-one]",212 nM
8,"Cn1c(=O)c(Nc2cccc(N3CCN(S(C)(=O)=O)CC3)c2)nc2ccc(-c3cn[nH]c3)cc21 [Example 40, 1-Methyl-3-((3-(4-(methylsulfonyl)piperazin-1-yl)phenyl)amino)-7-(1H-pyrazol-4-yl)quinoxaline-2(1H)-one]",163 nM
9,"Cn1c(=O)c(Nc2ccc(N3CCOCC3)cc2)nc2ccc(-c3cn[nH]c3)c(Cl)c21 [Example 43, 8-Chloro-1-methyl-3-((4-morpholinephenyl)amino)-7-(1H-pyrazol-4-yl)quinoxaline-2(1H)-one]",116 nM
10,"Cn1c(=O)c(Nc2ccc(N3CCOCC3)cc2F)nc2ccc(-c3cn[nH]c3)cc21 [Example 47, 3-((2-Fluoro-4-morpholinephenyl)amino)-1-methyl-7-(1H-pyrazol-4-yl)quinoxaline-2(1H)-one]",242 nM
11,"Cn1c(=O)c(Nc2ccc(N3CCOCC3)cc2)nc2ccc(-c3cnc(N)s3)cc21 [Example 58, 7-(2-Aminothiazol-5-yl)-1-methyl-3-((4-morpholinephenyl)amino)quinoxaline-2(1H)-one]",197 nM

# Continued, values first:
row,IC50,SMILES
1,12.3 nM,"Cn1c(=O)c(Nc2ccc(C(C)(O)C(F)(F)F)cn2)cc2c(F)c(-c3cc[nH]n3)ccc21 (single isomer, unassigned) [Example 24, 5-Fluoro-1-methyl-6-(1H-pyrazol-3-yl)-3-((5-(1,1,1-trifluoro-2-hydroxypropan-2-yl)pyridine-2-yl)amino)quinoline-2(1H)-one]"
2,8.9 nM,"Cn1c(=O)c(Nc2ccc(C(C)(O)C(F)(F)F)cn2)cc2c(F)c(-c3cc[nH]n3)ccc21 (single isomer, unassigned) [Example 25, 5-Fluoro-1-methyl-6-(1H-pyrazol-3-yl)-3-((5-(1,1,1-trifluoro-2-hydroxypropan-2-yl)pyridine-2-yl)amino)quinoline-2(1H)-one]"
3,58.4 nM,Cn1c(=O)c(Nc2ccc(N3CCC(O)(C(F)(F)F)CC3)cn2)cc2cc(-c3cc[nH]n3)ccc21 [Example 5]
4,38.5 nM,"Cn1c(=O)c(Nc2ccc(C3(O)COC3)cn2)cc2c(F)c(-c3cc[nH]n3)ccc21 [Example 22, 5-Fluoro-3-[[5-(3-hydroxyoxetan-3-yl)pyridin-2-yl]amino]-1-methyl-6-(1H-pyrazol-3-yl)quinoline-2(1H)-one]"
5,78 nM,"Cn1c(=O)c(Nc2ccc(N3CCOCC3)cc2)nc2ccc(-c3cc[nH]n3)cc21 [Example 27, 1-Methyl-3-((4-morpholinephenyl)amino)-7-(1H-pyrazol-3-yl) quinoxaline-2(1H)-one]"
6,26 nM,"CN1CCN(S(=O)(=O)c2ccc(Nc3nc4ccc(-c5cn[nH]c5)cc4n(C)c3=O)cc2)CC1 [Example 34, 1-Methyl-3-((4-((4-methylpiperazin-1-yl)sulfonyl)phenyl)amino)-7-(1H-pyrazol-4-yl)quinoxaline-2(1H)-one]"
7,6.4 nM,"CCS(=O)(=O)N1CCN(c2ccc(Nc3nc4ccc(-c5cn[nH]c5)cc4n(C)c3=O)cc2)CC1 [Example 36, 3-((4-(4-(Ethylsulfonyl)piperazin-1-yl)phenyl)amino)-1-methyl-7-(1H-pyrazol-4-yl)quinoxaline-2(1H)-one]"
8,30 nM,"Cn1c(=O)c(Nc2ccc(N3CCOCC3)cc2)nc2cc(Cl)c(-c3cn[nH]c3)cc21 [Example 42, 6-Chloro-1-methyl-3-((4-morpholinephenyl)amino)-7-(1H-pyrazol-4-yl)quinoxaline-2(1H)-one]"
9,22.5 nM,Cc1cc(Nc2nc3ccc(-c4cn[nH]c4)cc3n(C)c2=O)ccc1N1CCOCC1 [Example 49]
10,49 nM,"Cn1c(=O)c(Nc2ccc(N3CCOCC3)c(Cl)c2)nc2ccc(-c3cn[nH]c3)cc21 [Example 50, 3-((3-Chloro-4-morpholinephenyl)amino)-1-methyl-7-(1H-pyrazol-4-yl)quinoxaline-2(1H)-one]"
11,12.9 nM,"COc1cc(Nc2nc3ccc(-c4cn[nH]c4)cc3n(C)c2=O)ccc1N1CCOCC1 [Example 51, 3-((3-Methoxy-4-morpholinephenyl)amino)-1-methyl-7-(1H-pyrazol-4-yl)quinoxaline-2(1H)one]"
12,29.7 nM,"Cn1c(=O)c(Nc2ccc(N3CCOCC3)cn2)nc2ccc(-c3cn[nH]c3)cc21 [Example 52, 1-Methyl-3-((5-morpholinepyridin-2-yl)amino)-7-(1H-pyrazol-4-yl)quinoxaline-2(1H)one]"
13,39.3 nM,"Cn1c(=O)c(Nc2ccc(N3CCOCC3)nc2)nc2ccc(-c3cn[nH]c3)cc21 [Example 53, 1-Methyl-3-((6-morpholinepyridin-3-yl)amino)-7-(1H-pyrazol-4-yl) quinoxaline-2(1H)one]"
14,29.2 nM,"Cn1c(=O)c(Nc2ccc(NC3CCOCC3)nc2)nc2ccc(-c3cn[nH]c3)cc21 [Example 56, 1-Methyl-7-(1H-pyrazol-4-yl)-3-((6-((tetrahydro-2H-pyran-4-yl)amino)pyridin-3-yl)amino)quinoxaline-2(1H)-one]"
15,62.9 nM,"Cn1c(=O)c(Nc2ccc(N3CCOCC3)cc2)nc2ccc(-c3cnc(N)[nH]3)cc21 [Example 57, 7-(2-Amino-1H-imidazol-5-yl)-1-methyl-3-((4-morpholinephenyl)amino)quinoxaline-2(1H)-one]"
